Source: US11634712B2, “Nucleic acid simultaneously inhibiting expression of mTOR gene and STAT3 gene” (CURIGIN CO., LTD., priority 2017, dated 2023)
d = 2'-deoxy (DNA); r = 2'-OH (RNA)

How the values were obtained:
[1] = tested on: mTOR gene; assay: mTOR expression after mTOR siRNA and/or STAT3 siRNA transfection of A549, real-time PCR; assay type: cell-based, human; conditions: A549, 48 hours after transfection, relative to control siRNA nc2 = 1.0000
[2] = tested on: STAT3 gene; assay: STAT3 expression after mTOR siRNA and/or STAT3 siRNA transfection of A549, real-time PCR; assay type: cell-based, human; conditions: A549, 48 hours after transfection, relative to control siRNA nc2 = 1.0000

Row | Substance | mTOR expression level [1] | STAT3 expression level [2]
1 | simTOR: siRNA targeting the only mTOR; SEQ ID NOs: 22 and 23 (chain 1 GUGGAAACAGGACCCAUGATT; chain 2 UCAUGGGUCCUGUUUCCACTT; sugars from the 5' end r19 d2, backbone not given here) | 0.1980 | 1.0705
2 | siSTAT3: siRNA targeting the only STAT3; SEQ ID NOS: 24 and 25 (chain 1 UGUUCUCUGAGACCCAUGATT; chain 2 UCAUGGGUCUCAGAGAACATT; sugars from the 5' end r19 d2, backbone not given here) | 1.0507 | 0.6074
